Where two headings read alike, the source gives them in different places.

For test [1], the target named is T1, Full-length wild type HIV-1 integrase (SF1) (Human immunodeficiency virus type 1 group M subtype B, UniProt P04585).
T1 construct: made in house; host or cells: E. coli BL21 (DE3)
Put plainly: Integrase strand-transfer scintillation proximity assay. In kind it is biochemical. The source says:
Integrase Strand-Transfer Scintillation Proximity Assay
Oligonucleotides: Oligonucleotide #1-5′-(biotin)[…]-3′ (SEQ ID NO: 1) and oligonucleotide #2-5′-[…]-3′ (SEQ ID NO: 2), were synthesized by TriLink BioTechnologies, Inc. (San Diego, Calif.). The annealed product represents preprocessed viral ds-DNA derived from the LTR U5 sequence of the viral genome. A ds-DNA control to test for non-specific interactions was made using a 3′ di-deoxy derivative of oligonucleotide #1 annealed to oligonucleotide #2. The CA overhang at the 5′ end of the non-biotinylated strand of the ds-DNA was created artificially by using a complimentary DNA oligonucleotide shortened by 2 base pairs. This configuration eliminates the requisite 3′ processing step of the integrase enzyme prior to the strand-transfer mechanism.
Host ds-DNA was prepared as an unlabeled and [^3H]-thymidine labeled product from annealed oligonucleotide #3-5-[…]-3′ (SEQ ID NO: 3), and oligonucleotide #4-1-5′-[…]-3′ (SEQ ID NO: 4), both synthesized by TriLink BioTechnologies, Inc. (San Diego, Calif.). The annealed product had overhanging 3′ ends of poly(dA). Host DNA was custom radiolabeled by PerkinElmer Life Sciences Inc. (Boston, Mass.) using an enzymatic method with a 12/1 ratio of [methyl-^3H]dTTP/cold ds-DNA to yield 5′-blunt end ds-DNA with a specific activity of >900 Ci/mmol. The radiolabeled product was purified using a NENSORB cartridge and stored in stabilized aqueous solution (PerkinElmer). The final radiolabeled product had six [^3H]-thymidine nucleotides at both 5′ ends of the host ds-DNA.
Reagents: Streptavidin-coated polyvinyltoluene (PVT) SPA beads were purchased from Amersham Biosciences (Piscataway, N.J.). Cesium chloride was purchased from Shelton Scientific, Inc. (Shelton, Conn.). White, polystyrene, flat-bottom, non-binding surface, 96-well plates were purchased from Corning. All other buffer components were purchased from Sigma (St. Louis, Mo.) unless otherwise indicated.
Enzyme Construction Full-length wild type HIV-1 integrase (SF1) sequence (amino acids 1-289) was constructed in a pET24a vector (Novagen, Madison, Wis.). The construct was confirmed through DNA sequencing.
Enzyme Purification Full length wild-type HIV Integrase was expressed in E. coli BL21 (DE3) cells and induced with 1 mM isopropyl-1 thio-β-D-galactopyranoside (IPTG) when cells reached an optical density between 0.8-1.0 at 600 nm. Cells were lysed by microfluidation in 50 mM HEPES pH 7.0, 75 mM NaCl, 5 mM DTT, 1 mM 4-(2-Aminoethyl)benzenesulfonylfluoride HCl (AEBSF). Lysate was then centrifuged 20 minutes at 11 k rpm in GSA rotor in Sorvall RC-5B at 4° C. Supernant was discarded and pellet resuspended in 50 mM HEPES pH 7.0, 750 mM NaCl, 5 mM DTT, 1 mM AEBSF and homogenized in a 40 mL Dounce homogenizer for 20 minutes on ice. Homogenate was then centrifuged 20 minutes at 11 k rpm in SS34 rotor in Sorvall RC-5B at 4° C. Supernant was discarded and pellet resuspended in 50 mM HEPES pH 7.0, 750 mM NaCl, 25 mM CHAPS, 5 mM DTT, 1 mM AEBSF. Preparation was then centrifuged 20 minutes at 11 k rpm in SS34 rotor in Sorvall RC-5B at 4° C.
Supernant was then diluted 1:1 with 50 mM HEPES pH 7.0, 25 mM CHAPS, 1 mM DTT, 1 mM AEBSF and loaded onto a Q-Sepharose column pre-equilibrated with 50 mM HEPES, pH 7.0, 375 mM NaCl, 25 mM CHAPS, 1 mM DTT, 1 mM AEBSF. The flow through peak was collected and NaCl diluted to 0.1 M with 50 mM HEPES pH 7.0, 25 mM CHAPS, 1 mM DTT, 0.5 mM AEBSF and loaded onto a SP-Sepharose column pre-equilibrated with 50 mM HEPES pH 7.0, 100 mM NaCl, 25 mM CHAPS, 1 mM DTT, 0.5 mM AEBSF. After washing the column with the equilibration buffer, a 100 to 400 mM NaCl gradient was run. The eluted integrase was concentrated and run on a S-300 gel diffusion column using 50 mM HEPES pH 7.0, 500 mM NaCl, 25 mM CHAPS, 1 mM DTT, 0.5 mM AEBSF. The peak from this column was concentrated to 0.76 mg/mL and stored at −70° C. and later used for strand transfer assays. […]
For orientation: SPA uses beads or plates that emit light when radiolabelled molecules are held near them.

In test [2] the test system is RF strain of HIV-1 in CEM-SS cells. Put plainly: HIV-1 cell protection assay (XTT dye reduction). In kind it is cell-based. The protocol: HIV-1 Cell Protection Assay
The antiviral activities of potential modulator compounds (test compounds) were determined in HIV-1 cell protection assays using the RF strain of HIV-1, CEM-SS cells, and the XTT dye reduction method (Weislow, O, S. et al., J. Natl. Cancer Inst 81: 577-586 (1989)). Subject cells were infected with HIV-1 RF virus at an moi of to affect about a 90% kill (for example, an moi in the range of from about 0.025 to about 0.819) or mock infected with medium only and added at 2×10^4 cells per well, with the addition of approximately 200 μL of medium, into 96 well plates containing half-log dilutions of test compounds. Six days later, 50 μl of XTT solution (1 mg/ml XTT tetrazolium and 20 nM phenazine methosulfate) were added to the wells and the plates were reincubated for four hours. Viability, as determined by the amount of XTT formazan produced, was quantified spectrophotometrically by absorbance at 450 nm.
Data from CPE assays were expressed as the percent of formazan produced in compound-treated cells compared to formazan produced in wells of uninfected, compound-free cells. The fifty percent effective concentration (EC50) was calculated as the concentration of compound that affected an increase in the percentage of formazan production in infected, compound-treated cells to 50% of that produced by uninfected, compound-free cells. The 50% cytotoxicity concentration (CC50) was calculated as the concentration of compound that decreased the percentage of formazan produced in uninfected, compound-treated cells to 50% of that produced in uninfected, compound-free cells. The therapeutic index was calculated by dividing the cytotoxicity (CC50) by the antiviral activity (EC50).
(In general: Tetrazolium dyes change colour on reduction, which living cells bring about.)

The mark [3] stands for this setting: integrase strand-transfer SPA, read-out: IC50.
Setting [4] is: Human immunodeficiency virus 1, 144 h, HIV-1 RF, CEM-SS cells, XTT, six days, read-out: EC50.
The mark [5] stands for this setting: Human immunodeficiency virus 1, CEM-SS, 144 h.

With `CC(=O)Nc1cn(Cc2ccc(F)cc2)c2cnc(C(=O)NO)cc12` [Example 1, 3-(acetylamino)-1-(4-fluorobenzyl)-N-hydroxy-1H-pyrrolo[2,3-c]pyridine-5-carboxamide], the IC50 in test [1] (setting [3]) was 130 nM. Moreover, in test [2] (setting [4]), the EC50 worked out at 11 nM.

Take `CC(=O)Nc1cn(Cc2ccc(F)cc2)c2cnc(C(=O)N(C)O)cc12` [Example 2, 3-(acetylamino)-1-(4-fluorobenzyl)-N-hydroxy-N-methyl-1H-pyrrolo[2,3-c]pyridine-5-carboxamide]: the EC50 in test [2] (setting [4]) was 20 nM. Compound `O=C(NO)c1cc2c(NS(=O)(=O)c3ccccc3)cn(Cc3ccc(F)cc3)c2cn1` [Example 3, 1-(4-fluorobenzyl)-N-hydroxy-3-[(phenylsulfonyl)amino]-1H-pyrrolo[2,3-c]pyridine-5-carboxamide] came in with an IC50 in test [1] of 40.5 nM. Besides, the EC50 in test [2] (setting [4]) stood at 21 nM. `CN(O)C(=O)c1cc2c(NS(=O)(=O)c3ccccc3)cn(Cc3ccc(F)cc3)c2cn1` [Example 4, 1-(4-fluorobenzyl)-N-hydroxy-N-methyl-3-[(phenylsulfonyl)amino]-1H-pyrrolo[2,3-c]pyridine-5-carboxamide]: the IC50 in test [1] (setting [3]) turned out to be 360 nM. Further, in test [2] (setting [4]), the EC50 is 42 nM. For `CS(=O)(=O)Nc1cn(Cc2ccc(F)cc2)c2cnc(C(=O)NO)cc12` [Example 5, 1-(4-fluorobenzyl)-N-hydroxy-3-[(methylsulfonyl)amino]-1H-pyrrolo[2,3-c]pyridine-5-carboxamide], in that order: 56 nM and 5.2 nM. For `CN(O)C(=O)c1cc2c(NS(C)(=O)=O)cn(Cc3ccc(F)cc3)c2cn1` [Example 6, 1-(4-fluorobenzyl)-N-hydroxy-N-methyl-3-[(methylsulfonyl)amino]-1H-pyrrolo[2,3-c]pyridine-5-carboxamide], in that order: 270 nM and 30 nM. With `CONC(=O)c1cc2c(C(=O)NCCN3CCOCC3)cn(Cc3ccc(F)cc3)c2cn1` [Example 7, 1-(4-fluorobenzyl)-N~5~- methoxy-N~3~-(2-morpholin-4-ylethyl)-1H-pyrrolo[2,3-c]pyridine-3,5-dicarboxamide], the IC50 in test [1] (setting [3]) is 550 nM. The compound further had an EC50 in test [2] (setting [5]) of 62 nM. On to `CCN1CCCC1CNC(=O)c1cn(Cc2ccc(F)cc2)c2cnc(C(=O)NOC)cc12` (centres unmarked) [Example 8, N3~-[(1-ethylpyrrolidin-2-yl)methyl]-1-(4-fluorobenzyl)-N~5~- methoxy-1H-pyrrolo[2,3-c]pyridine-3,5-dicarboxamide], for which the IC50 in test [1] (setting [3]) turned out to be 1400 nM. Further, in test [2] (setting [5]), the EC50 came to 700 nM. The like results for `CONC(=O)c1cc2c(C(=O)NCCCN3CCCC3=O)cn(Cc3ccc(F)cc3)c2cn1` [Example 9, 1-(4-fluorobenzyl)-N~5~- methoxy-N~3~-[3-(2-oxopyrrolidin-1-yl)propyl]-1H-pyrrolo[2,3-c]pyridine-3,5-dicarboxamide] were, in that order, 267 nM and 42 nM. Turning to `CCN(CC)S(=O)(=O)c1cn(Cc2ccc(F)cc2)c2cnc(C(=O)NOC)cc12` [Example 49, 3-[(diethylamino)sulfonyl]-1-(4-fluorobenzyl)-N-methoxy-1H-pyrrolo[2,3-c]pyridine-5-carboxamide], in test [2] (setting [4]), the EC50 was 17 nM. For `CN(O)C(=O)c1cc2c(S(=O)(=O)NCCCO)cn(Cc3ccc(F)cc3)c2cn1` [Example 50, 1-(4-fluorobenzyl)-N-hydroxy-3-{[(3-hydroxypropyl)amino]sulfonyl}-N-methyl-1H-pyrrolo[2,3-c]pyridine-5-carboxamide], the EC50 in test [2] (setting [4]) worked out at 460 nM. With `CONC(=O)c1cc2c(S(=O)(=O)NCCCO)cn(Cc3ccc(F)cc3)c2cn1` [Example 51, 1-(4-fluorobenzyl)-3-{[(3-hydroxypropyl)amino]sulfonyl}-N-methoxy-1H-pyrrolo[2,3-c]pyridine-5-carboxamide], the EC50 in test [2] (setting [4]) came to 110 nM. Turning to `CONC(=O)c1cc2c(S(=O)(=O)Nc3cccnc3OC)cn(Cc3ccc(F)cc3)c2cn1` [Example 52, 1-(4-fluorobenzyl)-N-methoxy-3-{[(2-methoxypyridin-3-yl)amino]sulfonyl}-1H-pyrrolo[2,3-c]pyridine-5-carboxamide], in test [2] (setting [4]), the concentration for a half-maximal effect (EC50) amounted to 52 nM. As to `COc1ncccc1NS(=O)(=O)c1cn(Cc2ccc(F)cc2)c2cnc(C(=O)N(C)O)cc12` [Example 53, 1-(4-fluorobenzyl)-N-hydroxy-3-{((2-methoxypyridin-3-yl)amino]sulfonyl}-N-methyl-1H-pyrrolo[2,3-c]pyridine-5-carboxamide], the EC50 in test [2] (setting [4]) is 140 nM. On the same count and under the same terms, as for `CONC(=O)c1cc2c(S(=O)(=O)N(C)CC3COCCO3)cn(Cc3ccc(F)cc3)c2cn1` (centres unmarked) [Example 54, 3-{[(1,4-dioxan-2-ylmethyl)(methyl)amino]sulfonyl}-1-(4-fluorobenzyl)-N-methoxy-1H-pyrrolo[2,3-c]pyridine-5-carboxamide], the figure is 48 nM; as for `CONC(=O)c1cc2c(S(=O)(=O)N3CCOCC3)cn(Cc3ccc(F)cc3)c2cn1` [Example 55, 1-(4-fluorobenzyl)-N-methoxy-3-(morpholin-4-ylsulfonyl)-1H-pyrrolo[2,3-c]pyridine-5-carboxamide], 25 nM; as for `CN(O)C(=O)c1cc2c(S(=O)(=O)N(C)CC3COCCO3)cn(Cc3ccc(F)cc3)c2cn1` (centres unmarked) [Example 56, 3-{[(1,4-dioxan-2-ylmethyl)(methyl)amino]sulfonyl}-1-(4-fluorobenzyl)-N-hydroxy-N-methyl-1H-pyrrolo[2,3-c]pyridine-5-carboxamide], 400 nM.

On to `CN(O)C(=O)c1cc2c(S(=O)(=O)N3CCOCC3)cn(Cc3ccc(F)cc3)c2cn1` [Example 57, 1-(4-fluorobenzyl)-N-hydroxy-N-methyl-3-(morpholin-4-ylsulfonyl)-1H-pyrrolo[2,3-c]pyridine-5-carboxamide], for which the EC50 in test [2] (setting [4]) was 480 nM.

As usually defined, the IC50 is the concentration at which inhibition is half-maximal. A word on the EC50: it is the concentration that produces a half-maximal response.

These data come from US20090170846A1, “INHIBITORS OF THE HIV INTEGRASE ENZYME” (Pfizer Inc, priority 2005, published 2009).
